# System: MV-4-11 cells
# Assay: Gene expression microarray analysis (Affymetrix PrimeView) and GSEA
# Assay type: cell-based, human
# Design: RFU PODN (11730768_x_at) / Fold change /veh PODN (11730768_x_at) / RFU LINC00158 (11744669_a_at) / Fold change /veh LINC00158 (11744669_a_at) / RFU DUSP10 (11751237_a_at) / Fold change /veh DUSP10 (11751237_a_at) / RFU ID3 (11757404_x_at) / Fold change /veh ID3 (11757404_x_at) / RFU PLEKHG5 (11737974_s_at) / Fold change /veh PLEKHG5 (11737974_s_at) / RFU LRRC4B (11730491_at) / Fold change /veh LRRC4B (11730491_at) / RFU GIMAP4 (11747438_a_at) / Fold change /veh GIMAP4 (11747438_a_at) / RFU KRT8 (11758183_x_at) / Fold change /veh KRT8 (11758183_x_at) / RFU CNN1 (11734310_a_at) / Fold change /veh CNN1 (11734310_a_at) / RFU VPS37D (11726825_at) / Fold change /veh VPS37D (11726825_at) / RFU C10orf10 (11716522_x_at) / Fold change /veh C10orf10 (11716522_x_at) / RFU KIR2DL2 /// KIR2DL4 /// KIR2DL5A /// KIR2DL5B /// KIR2DS1 /// KIR2DS2 /// KIR2DS3 /// KIR2DS4 /// KIR3DL3 /// KIR3DL3 /// KIR3DS1 (11738374_at) / Fold change /veh KIR2DL2 /// KIR2DL4 /// KIR2DL5A /// KIR2DL5B /// KIR2DS1 /// KIR2DS2 /// KIR2DS3 /// KIR2DS4 /// KIR3DL3 /// KIR3DL3 /// KIR3DS1 (11738374_at) / RFU C1QL1 (11718748_at) / Fold change /veh C1QL1 (11718748_at) / RFU TMPRSS4 (11747572_a_at) / Fold change /veh TMPRSS4 (11747572_a_at) / RFU HAMP (11756126_x_at) / Fold change /veh HAMP (11756126_x_at) / RFU RNFT2 (11725882_a_at) / Fold change /veh RNFT2 (11725882_a_at) / RFU NR4A2 (11747474_a_at) / Fold change /veh NR4A2 (11747474_a_at) / RFU ABCC12 (11746883_a_at) / Fold change /veh ABCC12 (11746883_a_at) / RFU TMEM136 (11760407_x_at) / Fold change /veh TMEM136 (11760407_x_at) / RFU CLDN22 /// WWC2 (11732394_at) / Fold change /veh CLDN22 /// WWC2 (11732394_at) / RFU HLA-DPB1 (11760878_x_at) / Fold change /veh HLA-DPB1 (11760878_x_at) / RFU SPINT1 (11716480_a_at) / Fold change /veh SPINT1 (11716480_a_at) / RFU GAP43 (11754022_s_at) / Fold change /veh GAP43 (11754022_s_at) / RFU A4GNT (11735810_at) / Fold change /veh A4GNT (11735810_at) / RFU PRB3 (11715151_x_at) / Fold change /veh PRB3 (11715151_x_at) / RFU TUBB4B (11761932_at) / Fold change /veh TUBB4B (11761932_at) / RFU CAPN14 (11732068_a_at) / Fold change /veh CAPN14 (11732068_a_at) / RFU TMCC2 (11721928_a_at) / Fold change /veh TMCC2 (11721928_a_at) / RFU IRGQ (11745062_a_at) / Fold change /veh IRGQ (11745062_a_at) / RFU FAM174B (11720279_a_at) / Fold change /veh FAM174B (11720279_a_at) / RFU TMPRSS4 (11748680_a_at) / Fold change /veh TMPRSS4 (11748680_a_at) / RFU FAM212B (11763350_a_at) / Fold change /veh FAM212B (11763350_a_at) / RFU PLEKHG5 (11743358_a_at) / Fold change /veh PLEKHG5 (11743358_a_at) / RFU ZSCAN30 (11745921_a_at) / Fold change /veh ZSCAN30 (11745921_a_at) / RFU CMKLR1 (11741424_a_at) / Fold change /veh CMKLR1 (11741424_a_at) / RFU LOC101060620 /// MAPK8IP1 (11723275_at) / Fold change /veh LOC101060620 /// MAPK8IP1 (11723275_at) / RFU SPTSSB (11747773_x_at) / Fold change /veh SPTSSB (11747773_x_at) / RFU PRSS12 (11739890_at) / Fold change /veh PRSS12 (11739890_at) / RFU BIN1 (11741810_x_at) / Fold change /veh BIN1 (11741810_x_at) / RFU WNT11 (11732464_a_at) / Fold change /veh WNT11 (11732464_a_at) / RFU C10orf10 (11716521_a_at) / Fold change /veh C10orf10 (11716521_a_at) / RFU C5orf56 (11738089_at) / Fold change /veh C5orf56 (11738089_at) / RFU CYB561 (11721691_x_at) / Fold change /veh CYB561 (11721691_x_at) / RFU ANKRD19P (11752326_a_at) / Fold change /veh ANKRD19P (11752326_a_at) / RFU OR2T12 /// OR2T33 /// OR2T8 (11738714_s_at) / Fold change /veh OR2T12 /// OR2T33 /// OR2T8 (11738714_s_at) / RFU VCAN (11748164_a_at) / Fold change /veh VCAN (11748164_a_at) / RFU JSRP1 (11732532_at) / Fold change /veh JSRP1 (11732532_at) / RFU KRTAP10-11 (11738290_x_at) / Fold change /veh KRTAP10-11 (11738290_x_at) / RFU MYO3A (11730013_a_at) / Fold change /veh MYO3A (11730013_a_at) / RFU EBF3 (11725865_a_at) / Fold change /veh EBF3 (11725865_a_at) / RFU CAMK2N1 (11719241_x_at) / Fold change /veh CAMK2N1 (11719241_x_at) / RFU C5orf56 (11738088_a_at) / Fold change /veh C5orf56 (11738088_a_at) / RFU OLFML3 (11715873_a_at) / Fold change /veh OLFML3 (11715873_a_at) / RFU LOC100653217 /// NTM (11731650_a_at) / Fold change /veh LOC100653217 /// NTM (11731650_a_at) / RFU MAPK11 (11762145_a_at) / Fold change /veh MAPK11 (11762145_a_at) / RFU FIZ1 (11724087_x_at) / Fold change /veh FIZ1 (11724087_x_at) / RFU OASL (11726364_x_at) / Fold change /veh OASL (11726364_x_at) / RFU SOX15 (11748057_x_at) / Fold change /veh SOX15 (11748057_x_at) / RFU CD79A (11719716_a_at) / Fold change /veh CD79A (11719716_a_at) / RFU HIST1H1D (11736915_at) / Fold change /veh HIST1H1D (11736915_at) / RFU CASKIN2 (11723855_a_at) / Fold change /veh CASKIN2 (11723855_a_at) / RFU LOC730098 (11760151_x_at) / Fold change /veh LOC730098 (11760151_x_at) / RFU OR4N2 (11742367_at) / Fold change /veh OR4N2 (11742367_at) / RFU PRRT2 (11749266_a_at) / Fold change /veh PRRT2 (11749266_a_at) / RFU SNX32 (11753110_a_at) / Fold change /veh SNX32 (11753110_a_at) / RFU CDHR5 (11726645_a_at) / Fold change /veh CDHR5 (11726645_a_at) / RFU RCAN1 (11760418_a_at) / Fold change /veh RCAN1 (11760418_a_at) / RFU FAM167A (11723789_a_at) / Fold change /veh FAM167A (11723789_a_at) / RFU FAM26E (11764081_at) / Fold change /veh FAM26E (11764081_at) / RFU ISYNA1 (11749810_s_at) / Fold change /veh ISYNA1 (11749810_s_at) / RFU ACY1 (11761880_at) / Fold change /veh ACY1 (11761880_at) / RFU 11764098_at / Fold change /veh 11764098_at / RFU SAMD14 (11745864_x_at) / Fold change /veh SAMD14 (11745864_x_at) / RFU NPB (11741838_a_at) / Fold change /veh NPB (11741838_a_at) / RFU TMPRSS6 (11731388_a_at) / Fold change /veh TMPRSS6 (11731388_a_at) / RFU KRTAP10-2 (11738614_at) / Fold change /veh KRTAP10-2 (11738614_at) / RFU ARHGAP8 /// PRR5-ARHGAP8 (11727945_x_at) / Fold change /veh ARHGAP8 /// PRR5-ARHGAP8 (11727945_x_at) / RFU KRTAP5-7 /// NADSYN1 (11734609_at) / Fold change /veh KRTAP5-7 /// NADSYN1 (11734609_at) / RFU RASL12 (11751679_a_at) / Fold change /veh RASL12 (11751679_a_at) / RFU CDKN2B (11736163_a_at) / Fold change /veh CDKN2B (11736163_a_at) / RFU PRF1 (11729649_at) / Fold change /veh PRF1 (11729649_at) / RFU, ZNF638 /// ZNF638-IT1 / Fold change vs veh, ZNF638 /// ZNF638-IT1 / RFU, PANK3 / Fold change vs veh, PANK3 / RFU, SH3YL1 / Fold change vs veh, SH3YL1 / RFU, ZEB2 / Fold change vs veh, ZEB2 / RFU, NRIP1 / Fold change vs veh, NRIP1 / RFU, PTTG1IP / Fold change vs veh, PTTG1IP / RFU, CAPN2 / Fold change vs veh, CAPN2 / RFU, MED14 / Fold change vs veh, MED14 / RFU, SNORA58 / Fold change vs veh, SNORA58 / RFU, C1orf63 / Fold change vs veh, C1orf63 / RFU, LRRFIP1 / Fold change vs veh, LRRFIP1 / RFU, NDUFAF7 / Fold change vs veh, NDUFAF7 / RFU, SLC12A2 / Fold change vs veh, SLC12A2 / RFU, IBTK / Fold change vs veh, IBTK / RFU, ESF1 / Fold change vs veh, ESF1 / Fold change vs veh, TMEM50B / RFU, TAOK1 / Fold change vs veh, TAOK1 / RFU, ACBD3 / Fold change vs veh, ACBD3 / RFU, TMA16 / Fold change vs veh, TMA16 / RFU, RWDD3 / Fold change vs veh, RWDD3 / RFU, BCAT1 / Fold change vs veh, BCAT1 / RFU, EDEM3 / Fold change vs veh, EDEM3 / RFU, TMEM33 / Fold change vs veh, TMEM33 / RFU, WDR75 / Fold change vs veh, WDR75 / RFU, AHCTF1 / Fold change vs veh, AHCTF1 / RFU, TFRC / Fold change vs veh, TFRC / RFU, ZDHHC17 / Fold change vs veh, ZDHHC17 / RFU, NOM1 / Fold change vs veh, NOM1 / RFU, ARL8B / Fold change vs veh, ARL8B / RFU, ZBTB11 / Fold change vs veh, ZBTB11 / RFU, TAMM41 / Fold change vs veh, TAMM41 / RFU, KIAA1704 /// LOC100996395 / Fold change vs veh, KIAA1704 /// LOC100996395 / RFU, ING1 / Fold change vs veh, ING1 / RFU, TRMT61B / Fold change vs veh, TRMT61B / RFU, FUBP3 / Fold change vs veh, FUBP3 / RFU, TP53 / Fold change vs veh, TP53 / RFU, TNKS2 / Fold change vs veh, TNKS2 / RFU, ZFP14 / Fold change vs veh, ZFP14 / RFU, ACTR2 / Fold change vs veh, ACTR2 / RFU, PPP3R1 / Fold change vs veh, PPP3R1 / RFU, PIK3R1 / Fold change vs veh, PIK3R1 / RFU, HNRNPA1 / Fold change vs veh, HNRNPA1 / RFU, RNF170 / Fold change vs veh, RNF170 / RFU, ZNF28 / Fold change vs veh, ZNF28 / RFU, RNGTT / Fold change vs veh, RNGTT / RFU, OGT / Fold change vs veh, OGT / RFU, BRD1 / Fold change vs veh, BRD1 / RFU, MARS / Fold change vs veh, MARS / RFU, ZNF655 / Fold change vs veh, ZNF655 / RFU, FAHD1 / Fold change vs veh, FAHD1 / RFU, BDP1 / Fold change vs veh, BDP1 / RFU, LRRCC1 / Fold change vs veh, LRRCC1 / RFU, ARID1A / Fold change vs veh, ARID1A / RFU, ZNF146 / Fold change vs veh, ZNF146 / RFU, ZNF330 / Fold change vs veh, ZNF330 / RFU, GPN3 / Fold change vs veh, GPN3 / RFU, C9orf123 / Fold change vs veh, C9orf123 / RFU, N4BP2L2 / Fold change vs veh, N4BP2L2 / RFU, ARFIP1 / Fold change vs veh, ARFIP1 / RFU, FAM179B / Fold change vs veh, FAM179B / RFU, BCL10 / Fold change vs veh, BCL10 / RFU, UHRF1BP1L / Fold change vs veh, UHRF1BP1L / RFU, BET1 / Fold change vs veh, BET1 / RFU, CNOT2 / Fold change vs veh, CNOT2 / RFU, ZNF268 / Fold change vs veh, ZNF268 / Fold change vs veh, ZNF507 / RFU, DGCR2 / Fold change vs veh, DGCR2 / RFU, WDSUB1 / Fold change vs veh, WDSUB1 / Fold change vs veh, HSP90B1 /// MIR3652 / RFU, ADSS / Fold change vs veh, ADSS / RFU, GK / Fold change vs veh, GK / RFU, ZNF148 / Fold change vs veh, ZNF148 / RFU, TAF9 / Fold change vs veh, TAF9 / RFU, SLC1A5 / Fold change vs veh, SLC1A5 / RFU, SLMO2 / Fold change vs veh, SLMO2 / RFU, ABCC4 / Fold change vs veh, ABCC4 / RFU, LOC101060439 /// RAP1B / Fold change vs veh, LOC101060439 /// RAP1B / RFU, RFX7 / Fold change vs veh, RFX7 / RFU, GTPBP10 / Fold change vs veh, GTPBP10 / RFU, CNEP1R1 / Fold change vs veh, CNEP1R1 / RFU, BIVM-ERCC5 /// ERCC5 / Fold change vs veh, BIVM-ERCC5 /// ERCC5 / RFU, ILF3 / Fold change vs veh, ILF3 / RFU 11762660_at / Fold change /veh 11762660_at / RFU VCAN (11757783_s_at) / Fold change /veh VCAN (11757783_s_at) / RFU DDX43 (11728927_at) / Fold change /veh DDX43 (11728927_at) / RFU KRT8 (11758188_x_at) / Fold change /veh KRT8 (11758188_x_at) / RFU NKD1 (11759106_at) / Fold change /veh NKD1 (11759106_at) / RFU SRD5A1 (11742802_a_at) / Fold change /veh SRD5A1 (11742802_a_at) / RFU TPSAB1 /// TPSB2 (11721975_s_at) / Fold change /veh TPSAB1 /// TPSB2 (11721975_s_at) / RFU GSTM3 (11746129_a_at) / Fold change /veh GSTM3 (11746129_a_at) / RFU IL23R (11737362_x_at) / Fold change /veh IL23R (11737362_x_at) / RFU TMEM51 (11727254_a_at) / Fold change /veh TMEM51 (11727254_a_at) / RFU PIWIL2 (11732686_x_at) / Fold change /veh PIWIL2 (11732686_x_at) / RFU ORM1 (11744905_x_at) / Fold change /veh ORM1 (11744905_x_at) / RFU CCDC152 (11743942_at) / Fold change /veh CCDC152 (11743942_at) / RFU ECM1 (11717891_a_at) / Fold change /veh ECM1 (11717891_a_at) / RFU IL23R (11748794_a_at) / Fold change /veh IL23R (11748794_a_at) / RFU TNFAIP8L3 (11732012_x_at) / Fold change /veh TNFAIP8L3 (11732012_x_at) / RFU MBOAT4 (11741988_at) / Fold change /veh MBOAT4 (11741988_at) / RFU 11764193_at / Fold change /veh 11764193_at / RFU TMEM53 (11763286_at) / Fold change /veh TMEM53 (11763286_at) / RFU MAGEB2 (11727129_at) / Fold change /veh MAGEB2 (11727129_at) / RFU TMEM200A (11744735_a_at) / Fold change /veh TMEM200A (11744735_a_at) / RFU CCDC152 (11751479_a_at) / Fold change /veh CCDC152 (11751479_a_at) / RFU FAM211A (11726209_a_at) / Fold change /veh FAM211A (11726209_a_at) / RFU RGS16 (11746705_a_at) / Fold change /veh RGS16 (11746705_a_at) / RFU VCAN (11755009_s_at) / Fold change /veh VCAN (11755009_s_at) / RFU RHOB (11743442_s_at) / Fold change /veh RHOB (11743442_s_at) / RFU RGS16 (11720943_a_at) / Fold change /veh RGS16 (11720943_a_at) / RFU RGS16 (11720944_at) / Fold change /veh RGS16 (11720944_at) / RFU, VPS4B / Fold change vs veh, VPS4B / RFU, CREB1 / Fold change vs veh, CREB1 / RFU, DNAJC13 / Fold change vs veh, DNAJC13 / RFU, GNAQ / Fold change vs veh, GNAQ / RFU, CDK5R1 / Fold change vs veh, CDK5R1 / RFU, ZRANB3 / Fold change vs veh, ZRANB3 / RFU, CUL4A / Fold change vs veh, CUL4A / RFU, CCNY / Fold change vs veh, CCNY / RFU, UFL1 / Fold change vs veh, UFL1 / RFU, COG3 / Fold change vs veh, COG3 / RFU, DIAPH2 / Fold change vs veh, DIAPH2 / RFU, SKA2 / Fold change vs veh, SKA2 / RFU, AFF3 / Fold change vs veh, AFF3 / RFU, LMF1 / Fold change vs veh, LMF1 / RFU, IPO11 / Fold change vs veh, IPO11 / RFU, DFFB / Fold change vs veh, DFFB / RFU, FOXP1 / Fold change vs veh, FOXP1 / RFU, CARD8 / Fold change vs veh, CARD8 / RFU, STRN3 / Fold change vs veh, STRN3 / RFU, ADK / Fold change vs veh, ADK / RFU, RASSF2 / Fold change vs veh, RASSF2 / RFU, WIPF1 / Fold change vs veh, WIPF1 / RFU, LARP1B / Fold change vs veh, LARP1B / RFU, RASA1 / Fold change vs veh, RASA1 / RFU, RB1 / Fold change vs veh, RB1 / RFU, PPFIA1 / Fold change vs veh, PPFIA1 / RFU, MAT2A / Fold change vs veh, MAT2A / RFU, CCT5 / Fold change vs veh, CCT5 / RFU, WDR92 / Fold change vs veh, WDR92 / RFU, CUX1 / Fold change vs veh, CUX1 / RFU, TTC7A / Fold change vs veh, TTC7A / RFU, TMEM135 / Fold change vs veh, TMEM135 / RFU, DEPTOR / Fold change vs veh, DEPTOR / RFU, CPM / Fold change vs veh, CPM / RFU, DNAJB6 / Fold change vs veh, DNAJB6 / RFU, CACNA2D3 / Fold change vs veh, CACNA2D3 / RFU, DTX4 / Fold change vs veh, DTX4 / RFU, TFCP2 / Fold change vs veh, TFCP2 / RFU, GMCL1 /// GMCL1P1 / Fold change vs veh, GMCL1 /// GMCL1P1 / RFU, AEBP2 / Fold change vs veh, AEBP2 / RFU, SNHG1 /// SNORD22 /// SNORD25 /// SNORD26 /// SNORD27 /// SNORD28 /// SNORD29 /// SNORD31 / Fold change vs veh, SNHG1 /// SNORD22 /// SNORD25 /// SNORD26 /// SNORD27 /// SNORD28 /// SNORD29 /// SNORD31 / Fold change (Aza/veh), C12orf56 (ProbeSet 11735607_a_at) / Fold change (ACY-1035/veh), C12orf56 (ProbeSet 11735607_a_at) / Fold change (Aza/veh), FGFR1OP (ProbeSet 11751329_s_at) / Fold change (ACY-1035/veh), FGFR1OP (ProbeSet 11751329_s_at) / Fold change (Aza/veh), VPS36 (ProbeSet 11739960_a_at) / Fold change (ACY-1035/veh), VPS36 (ProbeSet 11739960_a_at) / RFU SYPL1 (11715823_x_at) / Fold change /veh SYPL1 (11715823_x_at) / RFU IGFBP7 (11715501_s_at) / Fold change /veh IGFBP7 (11715501_s_at) / RFU REEP3 (11722064_at) / Fold change /veh REEP3 (11722064_at) / RFU IGLL1 (11728026_x_at) / Fold change /veh IGLL1 (11728026_x_at): dose or concentration left out as unconfirmed
# Conditions: ProbeSet 11755159_a_at; LIST D
smiles,measurement,value
Nc1ccc(-c2cccs2)cc1NC(=O)c1ccc2c(c1)cc(C1CC1)n2CCN1CCOCC1 [ACY-1035],"Fold change vs veh, COG3",0.96

# Source: paper PMC5218480 (PLoS ONE, 2017)
